Laboratory results as given in US6648952B1, “Anthrapyridone compound, aqueous magenta ink compositions and ink-jet recording method” (Nippon Kayaku Kabushiki Kaisha, priority 1999, dated 2003).
Structures can show the parent of a compound that is named as a salt.

Assay: Solubility of the dye in pure water
Format: physicochemical
Settings: pure water (ion exchanged water), 25° C.

CC(C)(C)CC(C)(C)c1ccc(Oc2cc(Nc3ccc(S(=O)(=O)O)cc3)c3c4c(c(C(=O)c5ccccc5)c(=O)[nH]c24)-c2ccccc2C3=O)c(S(=O)(=O)O)c1 [Example M1, sodium salt of anthrapyridone disulfonic acid of Formula (1)]
solubility: 100 mg/mL
